Source: patent US10457710B2, “Antimicrobial peptides, their variants and uses” (priority 2015, dated 2019)
Where a SMILES comes first, the peptide text is derived from it. [ ]: non-standard residue; d: D form.

How the values were obtained:
Assay type in all cases: cell-based
[1] = tested on: clinical strains of Acinetobacter baumannii; experiment: MIC, microdilution, clinical strains; design: unit: μg/ml; details: 0.02% BSA, 0.2% acetic acid
Outline: (§1)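 Broth microdilution with inocula adjusted to 5.0×10^5 cfu/ml; peptides tested at 0.125 to 128 μg/ml and incubated at 37° C for 20 to 24 hours. Bacteria were grown in Mueller Hinton broth, yeasts in potato dextrose broth. MIC was the lowest concentration showing no visible growth.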

[2] = tested on: clinical strains of A. johnsonii; experiment: MIC, microdilution, clinical strains; design: unit: μg/ml; details: Acinetobacter johnsonii strain 1, Muller Hinton broth-cation adjusted, 0.02% BSA, 0.2% acetic acid
Outline: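 Broth microdilution in Potato dextrose broth, inoculum 5.0×10^5 cfu/ml, peptide 0.125–128 μg/ml, incubated at 37 °C for 20–24 h; MIC taken as lowest concentration without visible growth. A. johnsonii clinical strains were tested the same way in Mueller Hinton broth.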

Candida albicans = experiment: MIC, clinical yeast strains; details: D-form peptide, concentrations tested 0.125 to 128 μg/ml
Outline: (§2)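 Clinical isolates were exposed to peptide concentrations from 0.125 up to 128 μg/ml at a starting density of 5.0×10^5 cfu/ml. Antifungal testing took place in potato dextrose broth at 37° C for 20 to 24 hours, and the end point was the absence of visible growth.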

C. parapsilosis = experiment: MIC, clinical yeast strains; details: D-form peptide, concentrations tested 0.125 to 128 μg/ml
Outline: as §2

C. glabrata = experiment: MIC, clinical yeast strains; details: D-form peptide, concentrations tested 0.125 to 128 μg/ml
Outline: as §2

[3] = tested on: clinical strains of S. aureus; experiment: MIC, microdilution, clinical strains; details: 0.02% BSA, 0.2% acetic acid
Outline: as §1

[4] = tested on: clinical strains of Proteus mirabilis; experiment: MIC, microdilution, clinical strains; details: 0.02% BSA, 0.2% acetic acid
Outline: as §1

[5] = tested on: clinical strains of S. pneumoniae; experiment: MIC, microdilution, clinical strains; details: 0.02% BSA, 0.2% acetic acid
Outline: as §1

[6] = tested on: clinical strains of K. pneumoniae; experiment: MIC, microdilution, clinical strains; details: 0.02% BSA, 0.2% acetic acid
Outline: as §1

[7] = tested on: clinical strains of Serratia marcescens; experiment: MIC, microdilution, clinical strains; details: 0.02% BSA, 0.2% acetic acid
Outline: as §1

[8] = tested on: clinical strains of P. aeruginosa; experiment: MIC, microdilution, clinical strains; details: 0.02% BSA, 0.2% acetic acid
Outline: as §1

[9] = tested on: clinical strains of E. coli; experiment: MIC, microdilution, clinical strains; details: microdilution, Muller Hinton broth-cation adjusted, 0.02% BSA, 0.2% acetic acid
Outline: as §1

[10] = tested on: clinical strains of E. cloacae; experiment: MIC, microdilution, clinical strains; details: 0.02% BSA, 0.2% acetic acid
Outline: as §1

C. quillermondiae = experiment: MIC, clinical yeast strains; details: clinical yeast strain 1; D-form peptide; concentrations tested 0.125 to 128 μg/ml
Outline: as §2

CC[C@@H](C)[C@@H](NC(=O)[C@@H](CCSC)NC(=O)[C@@H](C)NC(=O)[C@@H](CCCNC(=N)N)NC(=O)[C@@H](Cc1c[nH]c2ccccc12)NC(=O)[C@@H](CCCCN)NC(=O)[C@H](N)CCCNC(=N)N)C(=O)N[C@H](CCCNC(=N)N)C(=O)N[C@H](CC(C)C)C(=O)N[C@H](Cc1c[nH]cn1)C(=O)N[C@H](C)C(=O)N[C@H](CCCCN)C(=O)N[C@H](Cc1c[nH]c2ccccc12)C(=O)N[C@H](CC(C)C)C(=O)N[C@H](CCCNC(=N)N)C(=O)N[C@H](CCCCN)C(=O)O [Chain105D] (H-[dR][dK][dW][dR][dA][dM][dI][dR][dL][dH][dA][dK][dW][dL][dR][dK]-OH)
Minimum inhibitory concentration ([1]; Acinetobacter baumannii strain 1, Muller Hinton broth-cation adjusted): 4 | Minimum inhibitory concentration ([1]; Acinetobacter baumannii strain 2, Muller Hinton broth-cation adjusted): 4 | Minimum inhibitory concentration ([1]; Acinetobacter baumannii strain 3, Muller Hinton broth-cation adjusted): 4 | Minimum inhibitory concentration ([1]; Acinetobacter baumannii strain 4, Muller Hinton broth-cation adjusted): 2 | Minimum inhibitory concentration ([1]; Acinetobacter baumannii strain 5, Muller Hinton broth-cation adjusted): 4 | Minimum inhibitory concentration [2]: 4 | Minimum inhibitory concentration, Candida albicans strain 1 (Candida albicans; clinical yeast strain 1): 32 | Minimum inhibitory concentration, Candida albicans strain 2 (Candida albicans; clinical yeast strain 2): 16 | Minimum inhibitory concentration, Candida albicans strain 3 (Candida albicans; clinical yeast strain 3): 32 | Minimum inhibitory concentration, Candida albicans strain 4 (Candida albicans; clinical yeast strain 4): 32 | Minimum inhibitory concentration, Candida albicans strain 5 (Candida albicans; clinical yeast strain 5): 32 | Minimum inhibitory concentration, C. parapsilosis strain 1 (C. parapsilosis; clinical yeast strain 1): 8 | Minimum inhibitory concentration, C. parapsilosis strain 2 (C. parapsilosis; clinical yeast strain 2): 8 | Minimum inhibitory concentration, C. parapsilosis strain 3 (C. parapsilosis; clinical yeast strain 3): 8 | Minimum inhibitory concentration, C. parapsilosis strain 4 (C. parapsilosis; clinical yeast strain 4): 4 | Minimum inhibitory concentration, C. glabrata strain 1 (C. glabrata; clinical yeast strain 1): 16 | Minimum inhibitory concentration, C. glabrata strain 2 (C. glabrata; clinical yeast strain 2): 16 | Minimum inhibitory concentration, C. glabrata strain 3 (C. glabrata; clinical yeast strain 3): 8 | Minimum inhibitory concentration, C. glabrata strain 4 (C. glabrata; clinical yeast strain 4): 32 | Minimum inhibitory concentration ([3]; Staphylococcus aureus strain 1, Muller Hinton broth-cation adjusted): 2 | Minimum inhibitory concentration ([3]; Staphylococcus aureus strain 2, Muller Hinton broth-cation adjusted): 2 | Minimum inhibitory concentration ([3]; Staphylococcus aureus strain 3, Muller Hinton broth-cation adjusted): 2 | Minimum inhibitory concentration ([3]; Staphylococcus aureus strain 4, Muller Hinton broth-cation adjusted): 2 | Minimum inhibitory concentration ([3]; Staphylococcus aureus strain 5, Muller Hinton broth-cation adjusted): 2 | Minimum inhibitory concentration ([4]; Proteus mirabilis strain 1, Muller Hinton broth-cation adjusted): >128 | Minimum inhibitory concentration ([4]; Proteus mirabilis strain 2, Muller Hinton broth-cation adjusted): 32 | Minimum inhibitory concentration ([4]; Proteus mirabilis strain 3, Muller Hinton broth-cation adjusted): 64 | Minimum inhibitory concentration ([4]; Proteus mirabilis strain 4, Muller Hinton broth-cation adjusted): >128 | Minimum inhibitory concentration ([4]; Proteus mirabilis strain 5, Muller Hinton broth-cation adjusted): >128 | Minimum inhibitory concentration ([5]; Streptococcus pneumoniae strain 1, Muller Hinton broth-cation adjusted): 4 | Minimum inhibitory concentration ([5]; Streptococcus pneumoniae strain 2, Muller Hinton broth-cation adjusted): 2 | Minimum inhibitory concentration ([5]; Streptococcus pneumoniae strain 3, Muller Hinton broth-cation adjusted): 2 | Minimum inhibitory concentration ([5]; Streptococcus pneumoniae strain 4, Muller Hinton broth-cation adjusted): 4 | Minimum inhibitory concentration ([5]; Streptococcus pneumoniae strain 5, Muller Hinton broth-cation adjusted): 2 | Minimum inhibitory concentration ([6]; Klebsiella pneumoniae strain 1, Muller Hinton broth-cation adjusted): 4 | Minimum inhibitory concentration ([6]; Klebsiella pneumoniae strain 2, Muller Hinton broth-cation adjusted): 2 | Minimum inhibitory concentration ([6]; Klebsiella pneumoniae strain 3, Muller Hinton broth-cation adjusted): 4 | Minimum inhibitory concentration ([6]; Klebsiella pneumoniae strain 4, Muller Hinton broth-cation adjusted): 4 | Minimum inhibitory concentration ([6]; Klebsiella pneumoniae strain 5, Muller Hinton broth-cation adjusted): 2 | Minimum inhibitory concentration ([7]; Serratia marcescens strain 1, Muller Hinton broth-cation adjusted): 128 | Minimum inhibitory concentration ([7]; Serratia marcescens strain 2, Muller Hinton broth-cation adjusted): 128 | Minimum inhibitory concentration ([7]; Serratia marcescens strain 3, Muller Hinton broth-cation adjusted): 128 | Minimum inhibitory concentration ([7]; Serratia marcescens strain 4, Muller Hinton broth-cation adjusted): 128 | Minimum inhibitory concentration ([7]; Serratia marcescens strain 5, Muller Hinton broth-cation adjusted): 128 | Minimum inhibitory concentration ([8]; Pseudomonas aeruginosa strain 1, Muller Hinton broth-cation adjusted): 4 | Minimum inhibitory concentration ([8]; Pseudomonas aeruginosa strain 2, Muller Hinton broth-cation adjusted): 4 | Minimum inhibitory concentration ([8]; Pseudomonas aeruginosa strain 3, Muller Hinton broth-cation adjusted): 4 | Minimum inhibitory concentration ([8]; Pseudomonas aeruginosa strain 4, Muller Hinton broth-cation adjusted): 4 | Minimum inhibitory concentration ([8]; Pseudomonas aeruginosa strain 5, Muller Hinton broth-cation adjusted): 4 | Minimum inhibitory concentration ([9]; Escherichia coli strain 1): 1 | Minimum inhibitory concentration ([9]; Escherichia coli strain 2): 4 | Minimum inhibitory concentration ([9]; Escherichia coli strain 3): 1 | Minimum inhibitory concentration ([9]; Escherichia coli strain 4): 1 | Minimum inhibitory concentration ([9]; Escherichia coli strain 5): 2 | Minimum inhibitory concentration ([10]; Enterobacter cloacae strain 1, Muller Hinton broth-cation adjusted): 2 | Minimum inhibitory concentration ([10]; Enterobacter cloacae strain 2, Muller Hinton broth-cation adjusted): 2 | Minimum inhibitory concentration ([10]; Enterobacter cloacae strain 3, Muller Hinton broth-cation adjusted): 2 | Minimum inhibitory concentration ([10]; Enterobacter cloacae strain 4, Muller Hinton broth-cation adjusted): 2 | Minimum inhibitory concentration ([10]; Enterobacter cloacae strain 5, Muller Hinton broth-cation adjusted): 1 | Minimum inhibitory concentration, C. quillermondiae strain 1 (C. quillermondiae): 8
